Measurements as given in patent US8304455B2, “Compositions and methods of their use for improving the condition and appearance of skin” (Avon Products, Inc, priority 2004, dated 2012).
Several values for one entry are separate records, joined by “and”; a condition that tells them apart may be missing. Equal values may be shown once.

How the values were obtained:
Assay type in all cases: cell-based
Settings in all cases: normal human epidermal keratinocytes; transcript numbers normalized to vehicle control; replicate values
[1] = system: Beta-catenin; experiment: PCR gene expression, Beta-catenin
Method: (§1) A vial of cryopreserved normal human epidermal keratinocytes (Adult or Neonatal) was removed from liquid N2 and placed in a 37° C. water bath for 1-2 minutes, or until completely thawed. The vial was then removed from the water bath and the excess water was wiped off. The vial was placed into a cell culture hood for sterility. The vial was wiped with 70% ethanol to air dry for 30 seconds. While in the cell culture hood, the cells were removed from the vial and placed into a 50 ml tube. The appropriate growth media (5 ml) was added drop wise while agitating the tube, allowing uniform mixture of the cells and medium while limiting cell death due to osmotic changes caused by freezing media, Medium (25 ml) was added to the 50 ml tube to bring the volume up to 30 ml. Into two 75 cm2 flasks, medium/cell solution (15 ml) was added, or to six 25 cm2 flasks, medium (5 ml) was added. Flasks were recapped and placed horizontally in a 37° C. humidified incubator with 5% CO2 for 24 hours. After 24 hours, the old medium was aspirated and fresh room temperature growth medium (15 ml) was added onto the cells. Prior to adding the fresh growth medium, it was brought up to room temperature using a room temperature water bath without the cover. The flasks containing cells with fresh media were placed back into the 37° C. incubator. Flasks containing the old media was replaced with fresh media repeatedly until the desired confluence (75%) was reached.
(§2) When the cells reached the desired confluency, they were removed from the incubator and the media was aspirated off using a vacuum trap. Hank's Buffered Saline Solution (HBSS; 10 ml of 1X; Mediatech, Inc.; Herndon, Va.) was placed into the flask and the entire surface area rinsed. The HBSS was then aspirated. Trypsin (1X; Mediatech, Inc.) was added in a 5 ml volume. The flasks were placed back into the incubator for 8 minutes. The flasks were taken from the incubator and 15 ml of Trypsin Neutralizing Solution (1X; Cascade Biologics; Portland, Oreg.) was added to each flask to neutralize the trypsin. […]

[2] = system: Collagen 4; experiment: PCR gene expression, Collagen 4
Method: as §1, §2

[3] = system: Collagen 7; experiment: PCR gene expression, Collagen 7
Method: as §1, §2

[4] = system: Frizzled 10; experiment: PCR gene expression, Frizzled 10
Method: as §1, §2

[5] = system: Estrogen Receptor alpha; experiment: PCR gene expression, Estrogen Receptor alpha
Method: as §1, §2

[6] = system: Hyaluronic acid synthase; experiment: PCR gene expression, Hyaluronic acid synthase; design: key: (—): Not statistically significant
Method: as §1, §2

SMILES | Beta-Catenin Transcript # [1] | Collagen 4 Transcript # [2] | Collagen 7 Transcript # [3] | Frizzled 10 Transcript # [4] | Estrogen Receptor alpha Transcript # [5] | Hyaluronic acid synthase Transcript # [6]
CCNC(=O)CC[C@H](N)C(=O)O [L-Theanine, L-theanine] | 10.31 and 8.678 (2×) | 10.79 and 9.561 and 10.49 | 12.87 and 10.72 and 11.44 | 17.68 and 16.48 and 17.08 | 13.03 and 12.39 and 7.627 | 10.53 and 7.971 and 8.113
CSC[C@H](N)C(=O)O [S-Methyl-L-Cysteine] | 8.657 and 10.39 and 9.955 | 9.845 and 10.83 and 9.353 | 14.83 and 16.55 (2×) | 18.65 and 16.26 and 18.41 | 6.087 and 5.073 | —
N[C@@H](CSc1ccccc1)C(=O)O [S-Phenyl-L-Cysteine] | 14.67 and 15.49 and 11.41 | 7.416 and 8.343 and 8.807 | 35.46 and 34.38 and 30.09 | 34.68 and 26.67 and 30.62 | 8.12 and 10.99 and 8.598 | 3.637 (2×) and 3.423
